Results reported in US11485731B2, “Compounds and methods useful in the treatment of a PRMT5-mediated disorder” (ARGONAUT THERAPEUTICS LIMITED, priority 2017, dated 2022).

These compounds were tested against human PRMT5/MEP50 (Homo sapiens (Human), UniProt O14744) (assay: PRMT5 chemiluminescent assay). Settings: human PRMT5/MEP50 expressed in HEK293 cells; biotinylated histone peptides; Histone H4 monomethyl R3 antibody; chemiluminescent readout.
Chain of human PRMT5/MEP50 (O14744 whole entry): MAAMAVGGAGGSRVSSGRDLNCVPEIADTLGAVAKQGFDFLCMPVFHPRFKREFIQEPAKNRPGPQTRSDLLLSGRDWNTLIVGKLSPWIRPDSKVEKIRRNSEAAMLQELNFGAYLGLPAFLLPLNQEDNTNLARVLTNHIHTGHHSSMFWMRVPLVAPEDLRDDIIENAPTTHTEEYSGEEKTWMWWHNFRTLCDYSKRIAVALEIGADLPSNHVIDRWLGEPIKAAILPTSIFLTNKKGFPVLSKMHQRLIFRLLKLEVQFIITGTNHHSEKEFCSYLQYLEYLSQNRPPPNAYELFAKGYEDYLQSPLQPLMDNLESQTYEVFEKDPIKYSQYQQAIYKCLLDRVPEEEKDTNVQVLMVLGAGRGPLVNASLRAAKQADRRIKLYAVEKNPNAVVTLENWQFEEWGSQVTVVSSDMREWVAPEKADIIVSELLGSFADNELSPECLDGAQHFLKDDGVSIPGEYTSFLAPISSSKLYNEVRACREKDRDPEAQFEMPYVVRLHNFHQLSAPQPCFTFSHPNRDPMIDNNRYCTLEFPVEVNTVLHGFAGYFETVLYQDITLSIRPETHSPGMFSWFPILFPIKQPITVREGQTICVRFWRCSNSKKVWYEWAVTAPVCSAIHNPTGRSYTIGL
Chain of human PRMT5/MEP50 (Q9BQA1 whole entry partner): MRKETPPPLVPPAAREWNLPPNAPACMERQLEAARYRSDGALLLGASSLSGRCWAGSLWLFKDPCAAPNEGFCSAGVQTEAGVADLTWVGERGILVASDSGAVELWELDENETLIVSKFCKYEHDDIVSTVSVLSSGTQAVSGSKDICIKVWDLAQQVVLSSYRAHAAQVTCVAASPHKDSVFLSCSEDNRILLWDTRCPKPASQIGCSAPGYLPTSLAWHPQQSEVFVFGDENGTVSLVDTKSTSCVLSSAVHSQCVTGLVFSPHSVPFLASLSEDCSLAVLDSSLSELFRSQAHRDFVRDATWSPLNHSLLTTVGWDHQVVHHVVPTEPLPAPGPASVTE
Format: biochemical
Description: A PRMT5 chemiluminescent assay was used to measure the IC50 activity of PRMT5 of the compounds of Examples 1A to 7 above. Biotinylated histone peptides were synthesized and attached to 384-well plates. Compound serial dilutions were performed and added to the assay plate. Histone H4 monomethyl R3 antibody was obtained from Abcam. A master mix for each well was prepared and human PRMT5/MEP50 (expressed in HEK293 cells) diluted in assay buffer to a concentration of 5 ng/μL. The reaction was incubated and slowly rotated for 60 minutes at the point of PRMT5/MEP50 addition. The supernatant from the wells was removed and blocking buffer was added to each well and rotated for 10 minutes. The primary antibody was diluted and added to every well for 60 minutes, before it was removed and the wells washed. The horse raddish peroxidase (HRP)-coupled secondary antibody was diluted and added to each well with an incubation time of 30 minutes. The HRP chemiluminescent substrate was added to every well. The plate was read on a Flourstar Omega BMG Labtech instrument (Ortenberg, Germany) and the analysis of IC50 was performed using the Flourstar Omega BMG Labtech software.
With O=C(NC[C@H](O)CN1CCc2ccccc2C1)N1CCC[C@@H](c2ccccc2)C1 (single isomer, unassigned) [Example 5A, (S)-N-((S)-3-(3,4-dihydroisoquinolin-2(1H)-yl)-2-hydroxypropyl)-3-phenylpiperidine-1-carboxamide or (R)-N-((S)-3-(3,4-dihydroisoquinolin-2(1H)-yl)-2-hydroxypropyl)-3-phenylpiperidine-1-carboxamide] the IC50 was 0.026 µM.
O=C(NC[C@H](O)CN1CCc2ccccc2C1)N1CCC[C@@H](c2ccccc2)C1 (single isomer, unassigned) [Example 5B, (S)-N-((S)-3-(3,4-dihydroisoquinolin-2(1H)-yl)-2-hydroxypropyl)-3-phenylpiperidine-1-carboxamide or (R)-N-((S)-3-(3,4-dihydroisoquinolin-2(1H)-yl)-2-hydroxypropyl)-3-phenylpiperidine-1-carboxamide] gave an IC50 of 0.599 µM.
With O=C(NC[C@H](O)CN1CCc2ccccc2C1)N1CCS[C@@H](c2ccccc2)C1 (single isomer, unassigned) [Example 5C, (S)-N-((S)-3-(3,4-dihydroisoquinolin-2(1H)-yl)-2-hydroxypropyl)-2-phenylthiomorpholine-4-carboxamide or (R)-N-((S)-3-(3,4-dihydroisoquinolin-2(1H)-yl)-2-hydroxypropyl)-2-phenylthiomorpholine-4-carboxamide] the IC50 was 0.017 µM.
For O=C(NC[C@H](O)CN1CCc2ccccc2C1)N1CCS[C@@H](c2ccccc2)C1 (single isomer, unassigned) [Example 5D, (S)-N-((S)-3-(3,4-dihydroisoquinolin-2(1H)-yl)-2-hydroxypropyl)-2-phenylthiomorpholine-4-carboxamide or (R)-N-((S)-3-(3,4-dihydroisoquinolin-2(1H)-yl)-2-hydroxypropyl)-2-phenylthiomorpholine-4-carboxamide], the IC50 was 0.101 µM.
In the case of O=C(NC[C@H](O)CN1CCc2ccccc2C1)N1CCC[C@H](c2ccccn2)C1 (single isomer, unassigned) [Example 5E, (S)-N-((S)-3-(3,4-dihydroisoquinolin-2(1H)-yl)-2-hydroxypropyl)-3-(pyridin-2-yl)piperidine-1-carboxamide or (R)-N-((S)-3-(3,4-dihydroisoquinolin-2(1H)-yl)-2-hydroxypropyl)-3-(pyridin-2-yl)piperidine-1-carboxamide], the IC50 is reported as 0.081 µM.
In the case of O=C(NC[C@H](O)CN1CCc2ccccc2C1)N1CCC[C@H](c2ccccn2)C1 (single isomer, unassigned) [Example 5F, (S)-N-((S)-3-(3,4-dihydroisoquinolin-2(1H)-yl)-2-hydroxypropyl)-3-(pyridin-2-yl)piperidine-1-carboxamide or (R)-N-((S)-3-(3,4-dihydroisoquinolin-2(1H)-yl)-2-hydroxypropyl)-3-(pyridin-2-yl)piperidine-1-carboxamide], the IC50 is reported as 0.097 µM.
For O=C(NC[C@H](O)CN1CCc2ccccc2C1)N1CCC[C@H](C2CCOCC2)C1 (single isomer, unassigned) [Example 5G, (R)-N-((S)-3-(3,4-dihydroisoquinolin-2(1H)-yl)-2-hydroxypropyl)-3-(tetrahydro-2H-pyran-4-yl)piperidine-1-carboxamide compound or (S)-N-((S)-3-(3,4-dihydroisoquinolin-2(1H)-yl)-2-hydroxypropyl)-3-(tetrahydro-2H-pyran-4-yl)piperidine-1-carboxamide], the IC50 was 0.394 µM.
O=C(NC[C@H](O)CN1CCc2ccccc2C1)N1CCC[C@H](C2CCOCC2)C1 (single isomer, unassigned) [Example 5H, (R)-N-((S)-3-(3,4-dihydroisoquinolin-2(1H)-yl)-2-hydroxypropyl)-3-(tetrahydro-2H-pyran-4-yl)piperidine-1-carboxamide compound or (S)-N-((S)-3-(3,4-dihydroisoquinolin-2(1H)-yl)-2-hydroxypropyl)-3-(tetrahydro-2H-pyran-4-yl)piperidine-1-carboxamide] was tested, and the IC50 was 0.511 µM.
